This note sets out measurements from PubChem BioAssay AID256 (DTP/NCI, 2004).

For the assay, the system named is CD2F1 mice, L1210 leukemia ip, survival T/C. Briefly: NCI In Vivo Anticancer Drug Screen. Data for tumor model L1210 Leukemia (intraperitoneal) in CD2F1 (CDF1) mice. The conditions noted are these: higher = longer survival. In outline: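 Activity against a transplanted murine tumor was judged by comparing the compound group with a vehicle group. The outcome in the treated animals was divided by that in the controls.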

Setting [1] is: endpoint: mean survival time, dose: 50.0 mg/kg/injection, schedule: Q01DX009 (ip), vehicle: saline with Tween-80.
The mark [2] stands for this setting: endpoint: mean survival time, dose: 100.0 mg/kg/injection, schedule: Q01DX009 (ip), vehicle: saline with Tween-80.
Where [3] appears, read: endpoint: mean survival time, dose: 200.0 mg/kg/injection, schedule: Q01DX009 (ip), vehicle: saline with Tween-80.
[4] abbreviates: endpoint: mean survival time, dose: 100.0 mg/kg/injection, schedule: Q04DX003 (ip), vehicle: saline with Tween-80.
Setting [5] is: endpoint: mean survival time, dose: 200.0 mg/kg/injection, schedule: Q04DX003 (ip), vehicle: saline with Tween-80.
Setting [6] is: endpoint: mean survival time, dose: 400.0 mg/kg/injection, schedule: Q04DX003 (ip), vehicle: saline with Tween-80.

Toxic doses and inconclusive results are not listed.

As for `C=C1CC(C)(Cn2cnc3c(=O)[nH]cnc32)OC1=O` (configuration not stated), the T/C is 94 % of control (endpoint: median survival time, dose: 3.13 mg/kg/injection, schedule: Q01DX005 (ip), vehicle: water); 94 % of control (endpoint: median survival time, dose: 6.25 mg/kg/injection, schedule: Q01DX005 (ip), vehicle: water); 98 % of control (endpoint: median survival time, dose: 12.5 mg/kg/injection, schedule: Q01DX005 (ip), vehicle: water); 92 % of control (endpoint: median survival time, dose: 25.0 mg/kg/injection, schedule: Q01DX005 (ip), vehicle: water).

As for `OCC(O)C(O)C(O)C(SCc1ccccc1)SCc1ccccc1` (configuration not stated), the T/C runs as follows: (endpoint: mean survival time, dose: 100.0 mg/kg/injection, schedule: Q01DX001 (ip), vehicle: saline with Tween-80) 97 % of control; (endpoint: mean survival time, dose: 200.0 mg/kg/injection, schedule: Q01DX001 (ip), vehicle: saline with Tween-80) 93 % of control; (endpoint: mean survival time, dose: 400.0 mg/kg/injection, schedule: Q01DX001 (ip), vehicle: saline with Tween-80) 89 % of control.

Take `Cc1ccc(S(=O)(=O)NS(=O)(=O)c2ccc(C)cc2)cc1`: the T/C by setting is: (endpoint: mean survival time, dose: 25.0 mg/kg/injection, schedule: Q04DX003 (ip), vehicle: Klucel (hydroxypropylcellulose) (HPC)) 106 % of control; (endpoint: mean survival time, dose: 50.0 mg/kg/injection, schedule: Q04DX003 (ip), vehicle: Klucel (hydroxypropylcellulose) (HPC)) 100 % of control; (endpoint: mean survival time, dose: 75.0 mg/kg/injection, schedule: Q04DX003 (ip), vehicle: saline sonified) 97 % of control; (endpoint: mean survival time, dose: 100.0 mg/kg/injection, schedule: Q04DX003 (ip), vehicle: Klucel (hydroxypropylcellulose) (HPC)) 88 % of control; (endpoint: mean survival time, dose: 150.0 mg/kg/injection, schedule: Q04DX003 (ip), vehicle: saline sonified) 95 % of control; (endpoint: mean survival time, dose: 300.0 mg/kg/injection, schedule: Q04DX003 (ip), vehicle: saline sonified) 101 % of control.

As for `CCCCCCCCCc1nc(N)nc(N)n1`, the T/C is, setting by setting: under setting [1], 104 % of control; under setting [2], 104 % of control; under setting [3], 104 % of control.

Take `CC(C)=NO`: the T/C by setting is: under setting [4], 109 % of control; under setting [5], 90 % of control.

Take `Cc1c([N+](=O)[O-])cc(C(C)(C)C)c(OS(C)(=O)=O)c1[N+](=O)[O-]`: the T/C (endpoint: mean survival time, dose: 100.0 mg/kg/injection, schedule: Q04DX002 (ip), vehicle: saline with Tween-80) was 105 % of control.

On to `CCOC(=O)Nc1ccc2c(c1)Cc1cc(N=Cc3ccc4c(c3)OCO4)ccc1-2`, for which the T/C reads like this: (endpoint: mean survival time, dose: 100.0 mg/kg/injection, schedule: Q01DX001 (ip), vehicle: carboxymethylcellulose (CMC)) 105 % of control; (endpoint: mean survival time, dose: 200.0 mg/kg/injection, schedule: Q01DX001 (ip), vehicle: carboxymethylcellulose (CMC)) 100 % of control; (endpoint: mean survival time, dose: 400.0 mg/kg/injection, schedule: Q01DX001 (ip), vehicle: carboxymethylcellulose (CMC)) 97 % of control.

Consider `COc1cccc(C(O)c2ccncc2C)c1OC` (configuration not stated), for which the T/C reads like this: (endpoint: mean survival time, dose: 25.0 mg/kg/injection, schedule: Q01DX009 (ip), vehicle: Klucel (hydroxypropylcellulose) (HPC)) 97 % of control; (endpoint: mean survival time, dose: 50.0 mg/kg/injection, schedule: Q01DX009 (ip), vehicle: Klucel (hydroxypropylcellulose) (HPC)) 97 % of control; (endpoint: mean survival time, dose: 100.0 mg/kg/injection, schedule: Q01DX009 (ip), vehicle: Klucel (hydroxypropylcellulose) (HPC)) 95 % of control; (endpoint: mean survival time, dose: 200.0 mg/kg/injection, schedule: Q01DX009 (ip), vehicle: Klucel (hydroxypropylcellulose) (HPC)) 98 % of control.

With `C=C(C)CNC1=C(C)C(=O)C2=C(C1=O)[C@@H](COC(N)=O)[C@]1(OC)[C@@H]3N[C@@H]3CN21`, the T/C (endpoint: mean survival time, dose: 1.5 mg/kg/injection, schedule: Q01DX001 (ip), vehicle: water) was 97 % of control; the T/C (endpoint: mean survival time, dose: 3.0 mg/kg/injection, schedule: Q01DX001 (ip), vehicle: water) is 103 % of control; the T/C (endpoint: mean survival time, dose: 6.0 mg/kg/injection, schedule: Q01DX001 (ip), vehicle: distilled water + Tween-80) was 104 % of control; the T/C (endpoint: mean survival time, dose: 6.0 mg/kg/injection, schedule: Q01DX001 (ip), vehicle: water) is 103 % of control; the T/C (endpoint: mean survival time, dose: 12.0 mg/kg/injection, schedule: Q01DX001 (ip), vehicle: distilled water + Tween-80) was 114 % of control; the T/C (endpoint: mean survival time, dose: 12.0 mg/kg/injection, schedule: Q01DX001 (ip), vehicle: water) is 108 % of control. Besides, where the note is “endpoint: mean survival time, dose: 48.0 mg/kg/injection, schedule: Q01DX001 (ip), vehicle: distilled water + Tween-80”, the T/C was 108 % of control.

Turning to `CNC(=O)OCc1nc(SC)n(C)c1COC(=O)NC`, the T/C is 103 % of control (endpoint: median survival time, dose: 12.5 mg/kg/injection, schedule: Q01DX005 (ip), vehicle: saline); 111 % of control (endpoint: median survival time, dose: 12.5 mg/kg/injection, schedule: Q01DX005 (ip), vehicle: suspension in saline); 111 % of control (endpoint: median survival time, dose: 25.0 mg/kg/injection, schedule: Q01DX005 (ip), vehicle: saline); 114 % of control (endpoint: median survival time, dose: 25.0 mg/kg/injection, schedule: Q01DX005 (ip), vehicle: suspension in saline); 175 % of control (endpoint: median survival time, dose: 65.0 mg/kg/injection, schedule: Q01DX005 (ip), vehicle: saline); 87 % of control (endpoint: median survival time, dose: 200.0 mg/kg/injection, schedule: Q01DX005 (ip), vehicle: suspension in saline).

In the case of `COc1cc(C(C2=C(O)c3ccccc3C(=O)C2=O)C2=C(O)c3ccccc3C(=O)C2=O)cc(Br)c1O`, the T/C is, setting by setting: (endpoint: mean survival time, dose: 100.0 mg/kg/injection, schedule: Q01DX009 (ip), vehicle: alcohol) 101 % of control; (endpoint: mean survival time, dose: 200.0 mg/kg/injection, schedule: Q01DX009 (ip), vehicle: alcohol) 93 % of control.

Regarding `O=c1[nH]c(=O)c2n[nH]nc2[nH]1`, the T/C is, setting by setting: (endpoint: mean survival time, dose: 23.0 mg/kg/injection, schedule: Q01DX009 (ip), vehicle: saline) 104 % of control; (endpoint: mean survival time, dose: 35.0 mg/kg/injection, schedule: Q01DX009 (ip), vehicle: saline) 101 % of control; (endpoint: mean survival time, dose: 50.0 mg/kg/injection, schedule: Q01DX009 (ip), vehicle: saline) 98 % of control.

As for `COc1cc([N+](=O)[O-])ccc1NC(=O)Nc1ccc(Cl)cc1`, the T/C is, setting by setting: under setting [2], 89 % of control; under setting [4], 91 % of control; under setting [3], 87 % of control; under setting [6], 107 % of control.

For the molecule `FC(F)(F)c1ccc2c(c1)N(CCCN(CCCl)CCCl)c1ccccc1S2`, the T/C is 100 % of control (endpoint: mean survival time, dose: 18.0 mg/kg/injection, schedule: Q01DX001 (ip), vehicle: saline) and 111 % of control (endpoint: mean survival time, dose: 28.0 mg/kg/injection, schedule: Q01DX001 (ip), vehicle: saline).

Consider `COC(=O)C(C)NC(=O)CCNC(=O)OCc1ccccc1` (configuration not stated), for which the T/C is 93 % of control under setting [4], 93 % of control under setting [5] and 90 % of control under setting [6].

Consider `COc1cc(OC)c(NC(=O)Oc2ccc(C(C)(C)C)cc2Br)cc1Cl`, for which the T/C was 97 % of control (endpoint: mean survival time, dose: 12.5 mg/kg/injection, schedule: Q01DX009 (ip), vehicle: saline with Tween-80); 102 % of control (endpoint: mean survival time, dose: 25.0 mg/kg/injection, schedule: Q01DX009 (ip), vehicle: saline with Tween-80); 94 % of control under setting [1]; 93 % of control under setting [2]; 86 % of control under setting [3].

For `C=CCn1c(NCCN(CC)CC)nc2ccc(Cl)cc2c1=O`, the T/C runs as follows: (endpoint: mean survival time, dose: 12.5 mg/kg/injection, schedule: Q01DX009 (ip), vehicle: saline sonified) 105 % of control; (endpoint: mean survival time, dose: 12.5 mg/kg/injection, schedule: Q04DX003 (ip), vehicle: saline) 100 % of control; (endpoint: mean survival time, dose: 25.0 mg/kg/injection, schedule: Q01DX009 (ip), vehicle: saline sonified) 100 % of control; (endpoint: mean survival time, dose: 25.0 mg/kg/injection, schedule: Q04DX003 (ip), vehicle: saline) 100 % of control; (endpoint: mean survival time, dose: 50.0 mg/kg/injection, schedule: Q01DX009 (ip), vehicle: saline sonified) 103 % of control; (endpoint: mean survival time, dose: 50.0 mg/kg/injection, schedule: Q04DX003 (ip), vehicle: saline) 101 % of control.

Take `COC(=O)C1OC(OC(C)=O)C(OC(C)=O)C(OC(C)=O)C1OC(C)=O` (configuration not stated): the T/C reads like this: (endpoint: mean survival time, dose: 75.0 mg/kg/injection, schedule: Q04DX003 (ip), vehicle: saline with Tween-80) 98 % of control; (endpoint: mean survival time, dose: 150.0 mg/kg/injection, schedule: Q04DX003 (ip), vehicle: saline with Tween-80) 98 % of control; (endpoint: mean survival time, dose: 300.0 mg/kg/injection, schedule: Q04DX003 (ip), vehicle: saline with Tween-80) 92 % of control.

Consider `Cc1ccc2c(c1)C1(SC(C)C(=O)N1c1ccc(Cl)cc1)C(=O)N2` (configuration not stated), for which the T/C is, setting by setting: (endpoint: median survival time, dose: 25.0 mg/kg/injection, schedule: Q01DX005 (ip), vehicle: saline with Tween-80) 107 % of control; (endpoint: median survival time, dose: 50.0 mg/kg/injection, schedule: Q01DX005 (ip), vehicle: saline with Tween-80) 113 % of control; (endpoint: median survival time, dose: 100.0 mg/kg/injection, schedule: Q01DX005 (ip), vehicle: saline with Tween-80) 116 % of control; (endpoint: median survival time, dose: 200.0 mg/kg/injection, schedule: Q01DX005 (ip), vehicle: saline with Tween-80) 116 % of control; (endpoint: median survival time, dose: 400.0 mg/kg/injection, schedule: Q01DX005 (ip), vehicle: saline with Tween-80) 123 % of control.
